Laboratory results: paper PMC12533185 (Nature Communications, 2025)

What was measured:
[1] = test system: Col2α1 mRNA; assay: Col2α1 mRNA expression in ATDC5 cells; assay type: cell-based, mouse; conditions: 10 μg/ml recombinant insulin, 7 days
[2] = test system: mechanical loading PTOA mice; assay: Micro-CT: osteophyte size in PTOA mice; assay type: in vivo, mouse
[3] = test system: mechanical loading PTOA mice; assay: Walking speed in PTOA mice; assay type: in vivo, mouse; conditions: after six weeks, MP 4 mg/kg weekly
[4] = test system: mechanical loading PTOA mice; assay: OARSI score in PTOA mice; assay type: in vivo, mouse
[5] = test system: mechanical loading PTOA mice; assay: Joint histology; assay type: in vivo, mouse; conditions: six weeks

Compound	increase of Col2α1 expression [1]	block of osteophytes formation and ectopic mineralization [2]	walking speed, % of initial level [3] [%]	OARSI score relative to MP&si-VPN@HA [4] [fold]	joint histology [5]
insulin: recombinant insulin used to induce chondrogenesis of ATDC5 cells	~ 10 fold				
C[C@H]1C[C@@H]2[C@H]([C@@H](O)C[C@@]3(C)[C@H]2CC[C@]3(O)C(=O)CO)[C@@]2(C)C=CC(=O)C=C12 [MP, methylprednisolone]		Neither MP nor si-VPN-2 could significantly block osteophytes formation and ectopic mineralization	18.22	5.67	large proteoglycan loss and cartilage erosion
